Data published in PubChem BioAssay (NCI).
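Cells were grown in 96-well plates and exposed to each compound for 48 hours at five concentrations; endpoints were interpolated linearly between bracketing concentrations, or set to the highest concentration if not reached. GI50: concentration for 50% inhibition of growth. TGI denotes the concentration required for complete inhibition of growth.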

Tests used:
Experiment in all cases: NCI-60 cell line screen, 48 h
[1] = system: MCF7 breast
[2] = system: SK-MEL-5 melanoma
[3] = system: PC-3 prostate
[4] = system: NCI-H226 lung
[5] = system: MDA-MB-435
[6] = system: A498 renal
[7] = system: KM12 colon
[8] = system: OVCAR-4 ovarian
[9] = system: IGROV1 ovarian
[10] = system: U251 CNS
[11] = system: NCI-H522 lung
[12] = system: UACC-257 melanoma
[13] = system: SNB-75 CNS
[14] = system: HT29 colon
[15] = system: M14 melanoma
[16] = system: LOX IMVI melanoma
[17] = system: NCI-H460 lung
[18] = system: BT-549 breast
[19] = system: K-562 leukemia
[20] = system: A549 NSCLC
[21] = system: MOLT-4 leukemia
[22] = system: T-47D breast
[23] = system: SW-620 colon
[24] = system: HOP-62 NSCLC
[25] = system: SK-MEL-28 melanoma
[26] = system: SK-MEL-2 melanoma
[27] = system: SK-OV-3 ovarian
[28] = system: SR leukemia
[29] = system: SF-295 CNS
[30] = system: RPMI-8226 leukemia
[31] = system: COLO 205 colon
[32] = system: OVCAR-8 ovarian
[33] = system: ACHN renal
[34] = system: HL-60(TB) leukemia
[35] = system: MDA-MB-231 breast
[36] = system: 786-0 renal
[37] = system: CCRF-CEM leukemia
[38] = system: SNB-19 CNS
[39] = system: SF-268 CNS
[40] = system: SN12C renal
[41] = system: CAKI-1 renal
[42] = system: HCT-15 colon
[43] = system: UO-31 renal
[44] = system: NCI-H23 lung
[45] = system: NCI/ADR-RES ovarian
[46] = system: OVCAR-3 ovarian
[47] = system: SF-539 CNS
[48] = system: HS 578T breast
[49] = system: HCT-116 colon
[50] = system: OVCAR-5 ovarian
[51] = system: DU-145 prostate

Structure (SMILES): CCOc1cccnc1/C=N/NC(N)=S
- GI50 [1]: 3.25 µM
- TGI [1]: > 100 µM
- GI50 [2]: 3.4 µM
- TGI [2]: > 100 µM
- GI50 [3]: 3.9 µM
- TGI [3]: > 100 µM
- GI50 [4]: 3.6 µM
- TGI [4]: 83 µM
- GI50 [5]: 4.53 µM
- TGI [5]: > 100 µM
- GI50 [6]: 3.95 µM
- TGI [6]: > 100 µM
- GI50 [7]: 4.38 µM
- TGI [7]: > 100 µM
- GI50 [8]: 2.79 µM
- TGI [8]: > 100 µM
- GI50 [9]: 5.01 µM
- TGI [9]: > 100 µM
- GI50 [10]: 2.9 µM
- TGI [10]: > 100 µM
- GI50 [11]: 3.05 µM
- TGI [11]: > 100 µM
- GI50 [12]: 3.99 µM
- TGI [12]: 39.1 µM
- GI50 [13]: 3.84 µM
- TGI [13]: > 100 µM
- GI50 [14]: 4.34 µM
- TGI [14]: > 100 µM
- GI50 [15]: 3.14 µM
- TGI [15]: 15 µM
- GI50 [16]: 2.7 µM
- TGI [16]: 14 µM
- GI50 [17]: 3.48 µM
- TGI [17]: > 100 µM
- GI50 [18]: 6.02 µM
- TGI [18]: > 100 µM
- GI50 [19]: 3.72 µM
- TGI [19]: > 100 µM
- GI50 [20]: 3.34 µM
- TGI [20]: > 100 µM
- GI50 [21]: 3.13 µM
- TGI [21]: 10.4 µM
- GI50 [22]: 4.85 µM
- TGI [22]: > 100 µM
- GI50 [23]: 4.46 µM
- TGI [23]: > 100 µM
- GI50 [24]: 3.71 µM
- TGI [24]: 48.5 µM
- GI50 [25]: 4.75 µM
- TGI [25]: > 100 µM
- GI50 [26]: 9.93 µM
- TGI [26]: > 100 µM
- GI50 [27]: 5.01 µM
- TGI [27]: > 100 µM
- GI50 [28]: 2.98 µM
- TGI [28]: 12.3 µM
- GI50 [29]: 3.92 µM
- TGI [29]: > 100 µM
- GI50 [30]: 3.82 µM
- TGI [30]: > 100 µM
- GI50 [31]: 3.87 µM
- TGI [31]: > 100 µM
- GI50 [32]: 3.48 µM
- TGI [32]: > 100 µM
- GI50 [33]: 4.01 µM
- TGI [33]: > 100 µM
- GI50 [34]: 2.42 µM
- TGI [34]: 6.16 µM
- GI50 [35]: 3.27 µM
- TGI [35]: > 100 µM
- GI50 [36]: 3.66 µM
- TGI [36]: > 100 µM
- GI50 [37]: 3 µM
- TGI [37]: 12 µM
- GI50 [38]: 4.43 µM
- TGI [38]: > 100 µM
- GI50 [39]: 3.42 µM
- TGI [39]: > 100 µM
- GI50 [40]: 3.5 µM
- TGI [40]: > 100 µM
- GI50 [41]: 3.51 µM
- TGI [41]: > 100 µM
- GI50 [42]: 4.08 µM
- TGI [42]: > 100 µM
- GI50 [43]: 2.9 µM
- TGI [43]: 26.6 µM
- GI50 [44]: 5.05 µM
- TGI [44]: > 100 µM
- GI50 [45]: 3.99 µM
- TGI [45]: > 100 µM
- GI50 [46]: 4.44 µM
- TGI [46]: > 100 µM
- GI50 [47]: 2.8 µM
- TGI [47]: 9.59 µM
- GI50 [48]: 52.3 µM
- TGI [48]: > 100 µM
- GI50 [49]: 4.26 µM
- TGI [49]: > 100 µM
- GI50 [50]: 6.37 µM
- TGI [50]: > 100 µM
- GI50 [51]: 3.53 µM
- TGI [51]: > 100 µM
